Measurements: patent US10231453B2, “5-substituted imidazole derivatives” (BAYER CROPSCIENCE AKTIENGESELLSCHAFT, priority 2015, dated 2019)
Read-outs that look alike come from different tables or passages of the source.

Key:
[1] = test system: Sphaerotheca fuliginea; test: In vivo preventive test on Sphaerotheca fuliginea (powdery mildew on cucurbits), Examples F and R6; conditions: Podosphaera fuliginea, 360 h, preventive spray, evaluated 15 days after inoculation
[2] = test system: Pyrenophora teres; test: In vivo preventive test on Pyrenophora teres (net blotch on barley), Examples D, Q2 and R4; conditions: Pyrenophora teres, 336 h; for pest or weed control at 100 ppm: Example R4, rate of application 100 ppm
[3] = test system: Phakopsora pachyrhizi; test: In vivo preventive Phakopsora test (soybeans), Example I; conditions: 168 h, 100 ppm of active ingredient, preventive spray, evaluated 7 days after inoculation, read-out: efficacy
[4] = test system: Septoria tritici; test: In vivo preventive test on Septoria tritici (leaf spot on wheat), Examples E, Q3 and R5; conditions: Zymoseptoria tritici, 576 h, preventive spray, evaluated 24 days after inoculation
[5] = test system: Puccinia recondita; test: In vivo preventive test on Puccinia recondita (brown rust on wheat), Examples C and R3; conditions: Puccinia recondita, 264 h, preventive spray, evaluated 11 days after inoculation
[6] = test system: Pyricularia oryzae; test: whole plant or invertebrate; type: in vivo; conditions: 192 h, read-out: efficacy
[7] = test system: Alternaria brassicae; test: In vivo preventive test on Alternaria brassicae (leaf spot on radish), Examples A and R1; conditions: Alternaria brassicae, 144 h; for pest or weed control at 100 ppm: Example R1, rate of application 100 ppm
[8] = test system: Blumeria graminis fsp. hordei; test: In vivo preventive Blumeria test (barley), Example K; conditions: 168 h, 500 ppm of active ingredient, preventive spray, evaluated 7 days after inoculation, read-out: efficacy
Description: After the spray coating has been dried, the plants are dusted with spores of Blumeria graminis fsp. hordei.

[9] = test system: Botrytis cinerea; test: In vivo preventive test on Botrytis cinerea (grey mould) on gherkin, Examples B, Q1 and R2; conditions: Botrytis cinerea; for pest or weed control at 100 ppm: Example R2, rate of application 100 ppm
[10] = test system: Venturia inaequalis; test: In vivo preventive Venturia test (apples), Example J; conditions: 240 h, read-out: efficacy
Protocol: After the spray coating has dried on, the plants are inoculated with an aqueous conidia suspension of the causal agent of apple scab (Venturia inaequalis) and then remain for 1 day in an incubation cabinet at approximately 20° C. and a relative atmospheric humidity of 100%.
The plants are then placed in a greenhouse at approximately 21° C. and a relative atmospheric humidity of approximately 90%.
The test is evaluated 10 days after the inoculation.

[11] = test system: Fusarium nivale (var. majus); test: In vivo preventive Fusarium nivale (var. majus) test (wheat), Example O; conditions: Microdochium nivale, 120 h, 500 ppm of active ingredient, preventive spray, evaluated 5 days after inoculation, read-out: efficacy
Description: After the spray coating has been dried, the plants are slightly injured by using a sandblast and afterwards they are sprayed with a conidia suspension of Fusarium nivale (var. majus).

[12] = test system: Leptosphaeria nodorum; test: In vivo preventive Leptosphaeria nodorum test (wheat), Example N; conditions: Parastagonospora nodorum, 192 h, 500 ppm of active ingredient, preventive spray, evaluated 8 days after inoculation, read-out: efficacy
Description: After the spray coating has been dried, the plants are sprayed with a spore suspension of Leptosphaeria nodorum.

[13] = Measurement of LogP values by HPLC on reversed phase columns (EEC directive 79/831 Annex V.A8); type: physicochemical; conditions: method [a]: LC-UV, acidic range, 0.1% formic acid in water and acetonitrile as eluent; Table 1
Protocol: Measurement of Log P values was performed as outlined above.

[14] = test system: Alternaria solani; test: In vivo preventive Alternaria test (tomatoes), Example H; conditions: 72 h, 100 ppm of active ingredient, preventive spray, evaluated 3 days after inoculation, read-out: efficacy
[15] = test system: Fusarium graminearum; test: whole plant or invertebrate; type: in vivo; conditions: in Hordeum vulgare, 120 h, read-out: efficacy
[16] = test system: Uromyces appendiculatus; test: In vivo preventive test on Uromyces appendiculatus (bean rust), Examples G and R7; conditions: 264 h, preventive spray, evaluated 11 days after inoculation
[17] = test system: Fusarium culmorum; test: In vivo preventive Fusarium culmorum test (wheat), Example L; conditions: 120 h, 500 ppm of active ingredient, preventive spray, evaluated 5 days after inoculation, read-out: efficacy
Protocol: After the spray coating has been dried, the plants are slightly injured by using a sandblast and afterwards they are sprayed with a conidia suspension of Fusarium culmorum.
The test is evaluated 5 days after the inoculation.

[18] = 500 ppm of active ingredient, gherkin, read-out: efficacy
[19] = Example R6, gherkin, read-out: Efficacy in %
[20] = Example R6, gherkin, 500 ppm, read-out: Efficacy in %
[21] = 500 ppm of active ingredient, preventive spray, evaluated 14 days after inoculation, read-out: efficacy
[22] = Example R4, rate of application 500 ppm, read-out: Efficacy in %
[23] = 500 ppm of active ingredient, wheat, read-out: efficacy
[24] = Example R5, wheat, read-out: Efficacy in %
[25] = Example R5, wheat, 500 ppm, read-out: Efficacy in %
[26] = Example R3, wheat, read-out: Efficacy in %
[27] = Example R3, wheat, 500 ppm, read-out: Efficacy in %
[28] = 500 ppm of active ingredient, preventive spray, evaluated 6 days after inoculation, read-out: efficacy
[29] = Example R1, rate of application 500 ppm, read-out: Efficacy in %
[30] = 500 ppm of active ingredient, preventive spray, evaluated 4 to 5 days after inoculation, read-out: efficacy
[31] = Example R2, rate of application 500 ppm, read-out: Efficacy in %
[32] = 500 ppm of active ingredient, bean, read-out: efficacy
[33] = Example R7, bean, read-out: Efficacy in %
[34] = Example R7, bean, 500 ppm, read-out: Efficacy in %

SMILES	pest or weed control at 500 ppm [1, 18]	pest or weed control at 500 ppm [2, 21]	pest or weed control at 100 ppm [3]	pest or weed control at 500 ppm [4, 23]	pest or weed control at 500 ppm [5, 23]	pest or weed control at 500 ppm [6]	pest or weed control at 500 ppm [7, 28]	pest or weed control at 500 ppm [8]	pest or weed control at 500 ppm [9, 30]	pest or weed control at 100 ppm [10]	pest or weed control at 500 ppm [11]	pest or weed control at 500 ppm [12]	chromatographic logP [13]	pest or weed control at 100 ppm [14]	pest or weed control at 500 ppm [15]	pest or weed control at 500 ppm [16, 32]	further results
OC(Cc1ccccc1Cl)(Cn1cncc1Br)C1(Cl)CC1 (stereo not shown) [Example I-04]	90 to 100%	90 to 100%	90 to 100%	90 to 100%	90 to 100%	90 to 100%	70 to 79%	90 to 100%	90 to 100%	90 to 100%	90 to 100%	90 to 100%	2.27	90 to 100%	70 to 79%	90 to 100%	pest or weed control at 100 ppm [1, 19]: 100%; pest or weed control at 500 ppm [1, 20]: 100%; pest or weed control at 100 ppm ([2]; read-out: Efficacy in %): 71%; pest or weed control at 500 ppm [2, 22]: 93%; pest or weed control at 100 ppm [4, 24]: 97%; pest or weed control at 500 ppm [4, 25]: 100%; pest or weed control at 100 ppm [5, 26]: 88%; pest or weed control at 500 ppm [5, 27]: 94%; pest or weed control at 100 ppm ([7]; read-out: Efficacy in %): 20%; pest or weed control at 500 ppm [7, 29]: 70%; pest or weed control at 100 ppm ([9]; read-out: Efficacy in %): 90%; pest or weed control at 500 ppm [9, 31]: 100%; pest or weed control at 100 ppm [16, 33]: 100%; pest or weed control at 500 ppm [16, 34]: 100%
OC(Cc1ccc(F)cc1Cl)(Cn1cncc1Cl)C1(Cl)CC1 (stereo not shown) [Example I-08]	90 to 100%	80 to 89%	90 to 100%	90 to 100%	90 to 100%	70 to 79%		90 to 100%	90 to 100%	90 to 100%	90 to 100%	90 to 100%	2.47	90 to 100%	70 to 79%	90 to 100%	
OC(Cc1ccccc1F)(Cn1cncc1Cl)C1(Cl)CC1 (stereo not shown) [Example I-32]	90 to 100%	80 to 89%	90 to 100%	90 to 100%	90 to 100%		90 to 100%	90 to 100%	90 to 100%	90 to 100%	80 to 89%	80 to 89%	2.07	90 to 100%	70 to 79%	90 to 100%	pest or weed control at 100 ppm [1, 19]: 100%; pest or weed control at 500 ppm [1, 20]: 100%; pest or weed control at 100 ppm ([2]; read-out: Efficacy in %): 78%; pest or weed control at 500 ppm [2, 22]: 89%; pest or weed control at 100 ppm [4, 24]: 71%; pest or weed control at 500 ppm [4, 25]: 100%; pest or weed control at 100 ppm [5, 26]: 78%; pest or weed control at 500 ppm [5, 27]: 94%; pest or weed control at 100 ppm ([7]; read-out: Efficacy in %): 50%; pest or weed control at 500 ppm [7, 29]: 92%; pest or weed control at 100 ppm ([9]; read-out: Efficacy in %): 99%; pest or weed control at 500 ppm [9, 31]: 100%; pest or weed control at 100 ppm [16, 33]: 81%; pest or weed control at 500 ppm [16, 34]: 100%
N#Cc1cncn1CC(O)(Cc1ccc(Br)cc1F)C1(Cl)CC1 (stereo not shown) [Example I-42]	90 to 100%	70 to 79%	90 to 100%	90 to 100%	90 to 100%	80 to 89%		90 to 100%	80 to 89%	80 to 89%	80 to 89%	90 to 100%	3.24	70 to 79%	80 to 89%	90 to 100%	
N#Cc1cncn1CC(O)(Cc1ccc(F)cc1F)C1(F)CC1 (stereo not shown) [Example I-97]	90 to 100%	80 to 89%	90 to 100%	90 to 100%	90 to 100%	70 to 79%		90 to 100%		80 to 89%	90 to 100%		2.39	80 to 89%	90 to 100%	90 to 100%	pest or weed control at 500 ppm [17]: 90 to 100%
N#Cc1cncn1CC(O)(Cc1ccccc1F)C1(F)CC1 (stereo not shown) [Example I-99]	90 to 100%	90 to 100%	90 to 100%	90 to 100%	90 to 100%	80 to 89%	80 to 89%	90 to 100%	90 to 100%	80 to 89%	90 to 100%	90 to 100%	2.01	90 to 100%	90 to 100%	90 to 100%	
N#Cc1cncn1CC(O)(Cc1ccc(F)cc1F)C1(Cl)CC1 (stereo not shown) [Example I-125]	90 to 100%		90 to 100%	90 to 100%	90 to 100%	80 to 89%		90 to 100%	80 to 89%	90 to 100%	90 to 100%	80 to 89%	2.78	90 to 100%	90 to 100%	90 to 100%	
N#Cc1cncn1CC(O)(Cc1cccc(F)c1F)C1(Cl)CC1 (stereo not shown) [Example I-146]	90 to 100%	90 to 100%	90 to 100%	90 to 100%	90 to 100%	70 to 79%		90 to 100%	90 to 100%	90 to 100%	90 to 100%	90 to 100%	2.75	90 to 100%	90 to 100%	90 to 100%	
OC(Cc1cccc(F)c1F)(Cn1cncc1Cl)C1(Cl)CC1 (stereo not shown) [Example I-147]	90 to 100%	90 to 100%	90 to 100%	90 to 100%	90 to 100%	80 to 89%		90 to 100%	90 to 100%	90 to 100%	90 to 100%	90 to 100%	2.17	90 to 100%	90 to 100%	90 to 100%	
